Measurements reported in patent US10174015B2, “Substituted heterocyclic derivative, preparation method and use thereof” (Xiamen University, priority 2014, dated 2019).
Where two headings read alike, the source gives them in different places.

How the values were obtained:
[1] = test system: headache caused by nitroglycerin; assay: Nitroglycerin-induced headache rat model; type: in vivo, Wistar rats; conditions: rats, 10 mg/kg i.p. 1 h before nitroglycerin (FIG. 5)
Method: In the Experimental example, compounds to be evaluated or compounds to be tested or test compounds used are the Compounds 1-46 prepared in the Examples according to the invention. In the Experimental example, all the agents for injection, including compounds to be evaluated or compounds to be tested or test compounds, and positive control drug, were dissolved in a mixed solvent of PEG400:Tween 80:normal saline (at a volume ratio of 5:5:90), at a concentration of 5 mg/mL.
Nitroglycerin-induced headache rat model was a common model for studying inflammatory pain medically. The model was used in the invention to evaluate the therapeutic effects of the compounds on headache. The model can represent mixed pain including, but not only limited to: migraine, cluster headache, tension headache syndrome, prosopodynia, lumbodynia, shoulder pain, burning mouth syndrome, and complex regional pain syndrome.
Experimental Wistar rats with a body weight of about 250 g for each (purchased from Shanghai SLAC Laboratory Animal Co., Ltd) were in an experimental environment with free access to food and water for 1 week. The rats were fasted for 24 h before administration. The compound to be evaluated (10 mg/kg) was intraperitoneally injected to the rat at 1 h before the administration of nitroglycerin, wherein the positive control drug was indomethacin and the blank control was normal saline. Nitroglycerin (10 mg/kg, nitroglycerin dissolved in normal saline, at a concentration of 5%) was injected at epidermis of the rat neck, and the rats were then placed in the observation cage. A video camera was used to record the behavior of the rats in the following 60 min. Pain-related behavior was analyzed statistically based on the times that the rat scratched its head in said period.

[2] = Assay on drug metabolism in rat; type: in vivo, SD rats; conditions: SD, plasma, iv, 30 mg/Kg via jugular vein
Text: 50 SD rats (purchased from Shanghai SLAC Laboratory Animal Co., Ltd) were divided into 5 groups randomly, 10 rats per group. After anesthesia with ether, rat was fixed on the operating table on its back, and was shaved at the operative site of neck. After disinfection with 75% alcohol, the neck was cut about 1.5 cm longitudinally, muscle tissues and nervi vascularis surrounding trachea were separated by blunt dissection, and carotid artery was separated by blunt dissection. Ligation was performed at distal end, an artery clamp was used at proximal part, and the distance between them was about 1 cm. A small cut was made with a pair of ophthalmic scissors at proximal part close to the ligated site, and arterial duct was introduced from the small cut to the proximal part, the artery clamp was loosened, the arterial ostium was clamped with smooth forceps, whilst the arterial duct was delivered to heart ventricle. Upon the introduction of the arterial duct into heart ventricle, the blood vessel was ligated. By using the same intubation method for artery, intubation was applied to jugular veins. After intubation, a tubule filled with heparin sodium was drawn out from artery and vein, which passed through the skin under the ear of the rat and drawn out from the dorsal part skin of the neck of the rat, and the tubule was fixed well. The muscles and skin were sutured at the surgical site of the rat, and normal saline containing heparin sodium was injected from time to time via the tubule connecting the artery and the vein to prevent tubule obstruction due to blood coagulation. The rat was placed in a warm and clean cage provided with water and food, waiting for the rat to wake up naturally.
After the rat regained consciousness and acted normally, assay on metabolic stability of compounds was performed in the rat. All the agents to be injected (including compounds to be tested and control drug) were dissolved in a mixed solvent of PEG400:Tween 80:normal saline (at a volume ratio of 5:5:90), at a concentration of 5 mg/mL. The agent was injected slowly at a dose of 30 mg/Kg via the tubule drawn out from the jugular vein. After administration, the time was recorded, and blood was collected from the tubule drawn out from carotid artery at 2, 5, 10, 20, 30, 60, 240, 360, and 720 min, in an amount of 200 μL for each time. The whole blood was placed in commercially available heparin sodium blood-collecting tube (Jiangxi Jingzhi Medical Equipment Co., Ltd.), centrifuged at 1800 g for 15 min. To the supernatant plasma, 150 μL pre-cooled methanol stopping buffer (containing internal standard E8, 1 nmol/sample) was added, vertically mixed well, and then centrifuged at 4° C., 12000 g for 10 min. The supernatant was transferred to a sample vial, the target compound was detected by LC-MS/MS, and the content of the compound was calculated by virtue of standard curve.

zebrafish embryos = type: in vivo; conditions: for Death number (72 h): n = 30; for observation of zebrafish embryo development: 48 h; for Body length (72 h) / Hatching number (72 h) / Heartbeat (72 h) / Unhatching number (72 h) / hatching rate: zebrafish, in vivo, 72 h
Method: By the same method described above, zebrafish fertilized eggs were cultured. 7 Groups were set for each test compound, including 5 experimental groups relating to the test compound at different concentrations (solutions containing the test compound at different concentrations were prepared by using zebrafish embryo culture medium, wherein the concentrations were 100 mg/L, 10 mg/L, 1 mg/L, 0.1 mg/L, 0.01 mg/L), 1 solvent control group (DMSO) and 1 blank control group. The fertilized eggs were placed and cultured in a 28.5° C. incubator, a certain humidity was ensured in the culture environment. Culture medium containing a test compound was prepared, and the culture medium was added to a 96-well plate in advance, and each fertilized egg (by reference to the experimental method in OECD No. 212 document, fertilized eggs, which developed normally within 24 h after fertilization, were selected and subjected to exposure. Transparent fish eggs visible to naked eye were normally fertilized, while white fish eggs were dead and discarded. After the selection, the normally fertilized eggs had begun to divide as observed under microscope) was then independently placed in a different well, and cultured in the culture medium containing a test compound at a different concentration. Embryo development status at different stages were observed and photographed with invert microscope, including:
I. Morphological observation: the developmental states of fertilized eggs (yolk being coagulated or not, eye spot, pericardial sac being edematous or not, bloodstream being existing or not, tail development status, and the like) were observed and photographed at 48 h, 72 h, and 96 h;
II. Hatching number and death number were counted at 72 h after fertilization, and hatching rate and mortality were calculated;
III. Body length of the hatched young fishes at 72 h was measured (measured after photographing with invert microscope); […]
V. Heartbeat of young fishes (times/min) was recorded at 72 h and 96 h after fertilization (Recording method: heartbeat of young fishes could be clearly observed under microscope, and the number of heartbeats was recorded for 30 s).

SMILES | effect of inhibiting nitroglycerin-induced headache [1] | half-life [2] | Death number (72 h) (zebrafish embryos; 0.01 mg/L) | Death number (72 h) (zebrafish embryos; 0.1 mg/L) | Death number (72 h) (zebrafish embryos; 1 mg/L) | Death number (72 h) (zebrafish embryos; 10 mg/L) | observation of zebrafish embryo development (zebrafish embryos; 100 mg/L) | Death number (72 h) (zebrafish embryos; 100 mg/L) | Body length (72 h) (zebrafish embryos; 0.01 mg/L) | Hatching number (72 h) (zebrafish embryos; 0.01 mg/L) | Heartbeat (72 h) (zebrafish embryos; 0.01 mg/L) | Unhatching number (72 h) (zebrafish embryos; 0.01 mg/L) | Body length (72 h) (zebrafish embryos; 0.1 mg/L) | Hatching number (72 h) (zebrafish embryos; 0.1 mg/L) | Heartbeat (72 h) (zebrafish embryos; 0.1 mg/L) | Unhatching number (72 h) (zebrafish embryos; 0.1 mg/L) | Body length (72 h) (zebrafish embryos; 1 mg/L) | Hatching number (72 h) (zebrafish embryos; 1 mg/L) | Heartbeat (72 h) (zebrafish embryos; 1 mg/L) | Unhatching number (72 h) (zebrafish embryos; 1 mg/L) | also measured
O=C(CCCCCc1cccc(Cl)c1)N1CCOC1=O [Compound 9, 3-Chlorophenylhexanoyl Oxazolidinone] | significant effects of inhibiting nitroglycerin-induced headache in rats | 1.95 h | 0 | 0 | 0 | 0 | no zebrafish embryos died, but phenomena such as pericardial cyst, no heartbeat, no bloodstream, no tail development and the like occurred in embryos | 30 | 4.01 ± 0.24 mm | 30 | 124 ± 0.27 per min | 0 | 4.03 ± 0.62 mm | 30 | 124 ± 1.17 per min | 0 | 4.01 ± 0.26 mm | 30 | 124 ± 1.08 per min | 0 | Body length (72 h) (zebrafish embryos; 10 mg/L): 3.82 ± 0.44 mm; Hatching number (72 h) (zebrafish embryos; 10 mg/L): 28; Heartbeat (72 h) (zebrafish embryos; 10 mg/L): 117 ± 2.24 per min; Unhatching number (72 h) (zebrafish embryos; 10 mg/L): 2; hatching rate (zebrafish embryos; 10 mg/L): 93.3%; Hatching number (72 h) (zebrafish embryos; 100 mg/L): 0; Unhatching number (72 h) (zebrafish embryos; 100 mg/L): 30
O=C(CCCCCc1ccccc1)N1CCOC1=O [Compound 2, Phenylhexanoyl Oxazolidinone] | significant effects of inhibiting nitroglycerin-induced headache in rats | 2.4 h | 0 | 0 | 0 | 0 | no zebrafish embryos died, but phenomena such as pericardial cyst, no heartbeat, no bloodstream, no tail development and the like occurred in embryos | 30 | 3.90 ± 0.93 mm | 30 | 124 ± 1.67 per min | 0 | 4.08 ± 0.09 mm | 30 | 123 ± 2.45 per min | 0 | 3.92 ± 0.10 mm | 30 | 123 ± 3.03 per min | 0 | Body length (72 h) (zebrafish embryos; 10 mg/L): 3.78 ± 0.05 mm; Hatching number (72 h) (zebrafish embryos; 10 mg/L): 28; Heartbeat (72 h) (zebrafish embryos; 10 mg/L): 117 ± 3.90 per min; Unhatching number (72 h) (zebrafish embryos; 10 mg/L): 2; hatching rate (zebrafish embryos; 10 mg/L): 93.3%; Hatching number (72 h) (zebrafish embryos; 100 mg/L): 0; Unhatching number (72 h) (zebrafish embryos; 100 mg/L): 30
